Reference: ChEMBL document CHEMBL6071146, “Synthesis and identification of a selective FGFR2 degrader with potent antiproliferative effects in gastric cancer” (Eur J Med Chem, 2024)

How the values were obtained:
[1] = tested on: SNU-16; assay: Antiproliferative activity against human SNU-16 cells incubated for 72 hrs by MTT assay; settings: SNU-16, 72 h
[2] = Antiproliferative activity against human KATO III cells incubated for 72 hrs by MTT assay
[3] = tested on: SNU-16; assay: Antitumor activity against human SNU-16 cells xenografted in BALB/c mouse at 20 mg/kg, ip qd for 25 days relative to control; settings: SNU-16, 600 h, read-out: TGI
[4] = tested on: SNU-16; assay: cells; settings: Homo sapiens, SNU-16, 24 h, read-out: Activity
Description: Induction of apoptosis in human SNU-16 cells assessed as viable cells at 1000 nM incubated for 24 hrs by Annexin V-FITC/PI staining based flow cytometry (Rvb = 77.12 %)

[5] = cells; settings: Homo sapiens, KATO III, 24 h, read-out: Activity
Description: Induction of apoptosis in human KATO III cells assessed as viable cells at 1000 nM incubated for 24 hrs by Annexin V-FITC/PI staining based flow cytometry (Rvb = 87.00 %)

[6] = tested on: SNU-16; assay: cells; settings: Homo sapiens, SNU-16, 24 h, read-out: Activity; remark: listed apart in the source
Description: Induction of apoptosis in human SNU-16 cells assessed as viable cells at 500 nM incubated for 24 hrs by Annexin V-FITC/PI staining based flow cytometry (Rvb = 77.12 %)

[7] = cells; settings: Homo sapiens, KATO III, 24 h, read-out: Activity; remark: listed apart in the source
Description: Induction of apoptosis in human KATO III cells assessed as viable cells at 500 nM incubated for 24 hrs by Annexin V-FITC/PI staining based flow cytometry (Rvb = 87.00 %)

What does the source list for `COc1cc(OC)cc(N(CCNC(C)C)c2ccc3ncc(-c4cnn(CCOCCOCCOCC(=O)NCCNc5cccc6c5C(=O)N(C5CCC(=O)NC5=O)C6=O)c4)nc3c2)c1` (stereo not drawn)?
IC50 [1]: 1 nM; IC50 [2]: 140 nM

With `COc1cc(OC)cc(N(CCNC(C)C)c2ccc3ncc(-c4cnn(CCOCC(=O)NCCNc5cccc6c5C(=O)N(C5CCC(=O)NC5=O)C6=O)c4)nc3c2)c1` (stereo not drawn) as the compound, how does the IC50 [1] read?
The IC50 was 23 nM.

What about the IC50 [2] of the same compound?
The IC50 was 388 nM.

Which results are given for `COc1cc(OC)cc(N(CCNC(C)C)c2ccc3ncc(-c4cnn(CCCCCC(=O)NCC(=O)NCCNc5cccc6c5C(=O)N(C5CCC(=O)NC5=O)C6=O)c4)nc3c2)c1` (stereo not drawn)?
IC50 [1]: 1 nM; IC50 [2]: 595 nM

What does the source list for `COc1cc(OC)cc(N(CCNC(C)C)c2ccc3ncc(-c4cnn(CCCC(=O)NCC(=O)NCCNc5cccc6c5C(=O)N(C5CCC(=O)NC5=O)C6=O)c4)nc3c2)c1` (stereo not drawn)?
IC50 [1]: 22 nM; IC50 [2]: 2 nM

Which results are given for `COc1cc(OC)cc(N(CCNC(C)C)c2ccc3ncc(-c4cnn(CCOCCOCC(=O)NCCNc5cccc6c5C(=O)N(C5CCC(=O)NC5=O)C6=O)c4)nc3c2)c1` (stereo not drawn)?
IC50 [1]: 1 nM; IC50 [2]: 208 nM

Which IC50 [1] does the source give for `COc1cc(OC)cc(N(CCNC(C)C)c2ccc3ncc(-c4cnn(CC(=O)NCC(=O)NCCNc5cccc6c5C(=O)N(C5CCC(=O)NC5=O)C6=O)c4)nc3c2)c1` (stereo not drawn) here?
Its IC50 is 65 nM.

And the IC50 [2]?
The IC50 was 523 nM.

Which IC50 [1] does the source give for `COc1cc(OC)cc(N(CCNC(C)C)c2ccc3ncc(-c4cnn(CCCC(=O)NCCNc5cccc6c5C(=O)N(C5CCC(=O)NC5=O)C6=O)c4)nc3c2)c1` (stereo not drawn) here?
Its IC50 is 234 nM.

What about the IC50 [2] of the same compound?
The IC50 was 172 nM.

Which IC50 [1] does the source give for `COc1cc(OC)cc(N(CCNC(C)C)c2ccc3ncc(-c4cnn(CCCCCCC(=O)NCC(=O)NCCNc5cccc6c5C(=O)N(C5CCC(=O)NC5=O)C6=O)c4)nc3c2)c1` (stereo not drawn) here?
Its IC50 is 1 nM.

And the IC50 [2]?
Its IC50 is 1 nM.

What does the source list for `COc1cc(OC)cc(N(CCNC(C)C)c2ccc3ncc(-c4cnn(C)c4)nc3c2)c1` [ERDAFITINIB]?
inhibition in vivo at 20 mg/kg [3]: 104%; viability at 1 µM [4]: 47.8%; IC50 [1]: 1 nM; viability at 1 µM [5]: 69.1%; IC50 [2]: 4 nM; viability at 0.5 µM [6]: 49.9%; viability at 0.5 µM [7]: 70.7%
